Experimental findings from ChEMBL document CHEMBL3627692, “Inhibition of mammalian carbonic anhydrase isoforms I-XIV with a series of phenolic acid esters” (Bioorg Med Chem, 2015) are described below.

The target of one experiment is Carbonic anhydrase 3 (Homo sapiens, UniProt P07451). The experiment is described as follows: Inhibition of human carbonic anhydrase 3 preincubated for 15 mins by stopped-flow CO2 hydration assay.
A further experiment concerns the target Carbonic anhydrase 2 (Homo sapiens, UniProt P00918). The experiment is described as follows: Inhibition of human carbonic anhydrase 2 preincubated for 15 mins by stopped-flow CO2 hydration assay.
For another experiment, the target named is Carbonic anhydrase 9 (Homo sapiens, UniProt Q16790). In words: Inhibition of human catalytic domain of carbonic anhydrase 9 preincubated for 15 mins by stopped-flow CO2 hydration assay.
The target in another experiment is Carbonic anhydrase 13 (Mus musculus, UniProt Q9D6N1). The experiment is described as follows: Inhibition of mouse carbonic anhydrase 13 preincubated for 15 mins by stopped-flow CO2 hydration assay.
The target of the next experiment is Carbonic anhydrase 1 (Homo sapiens, UniProt P00915). In words: Inhibition of human carbonic anhydrase 1 preincubated for 15 mins by stopped-flow CO2 hydration assay.
The target of another experiment is Carbonic anhydrase 12 (Homo sapiens, UniProt O43570). The experiment is described as follows: Inhibition of human catalytic domain of carbonic anhydrase 12 preincubated for 15 mins by stopped-flow CO2 hydration assay.
Experiment [1] addresses Carbonic anhydrase 5B, mitochondrial (Homo sapiens, UniProt Q9Y2D0). The experiment is described as follows: Inhibition of human carbonic anhydrase 5B preincubated for 15 mins by stopped-flow CO2 hydration assay.
The target of another experiment is Carbonic anhydrase 6 (Homo sapiens, UniProt P23280). The experiment is described as follows: Inhibition of human carbonic anhydrase 6 preincubated for 15 mins by stopped-flow CO2 hydration assay.
For another experiment, the target named is Carbonic anhydrase 7 (Homo sapiens, UniProt P43166). The experiment is described as follows: Inhibition of human carbonic anhydrase 7 preincubated for 15 mins by stopped-flow CO2 hydration assay.
For another experiment, the target named is Carbonic anhydrase 14 (Homo sapiens, UniProt Q9ULX7). In words: Inhibition of human carbonic anhydrase 14 preincubated for 15 mins by stopped-flow CO2 hydration assay.
A further experiment concerns the target Carbonic anhydrase 4 (Homo sapiens, UniProt P22748). In words: Inhibition of human carbonic anhydrase 4 preincubated for 15 mins by stopped-flow CO2 hydration assay.
For experiment [2], the target named is Carbonic anhydrase 5A, mitochondrial (Homo sapiens, UniProt P35218). In words: Inhibition of human carbonic anhydrase 5A preincubated for 15 mins by stopped-flow CO2 hydration assay.
Carbonic anhydrase 5A, mitochondrial, sequence (P35218 whole entry): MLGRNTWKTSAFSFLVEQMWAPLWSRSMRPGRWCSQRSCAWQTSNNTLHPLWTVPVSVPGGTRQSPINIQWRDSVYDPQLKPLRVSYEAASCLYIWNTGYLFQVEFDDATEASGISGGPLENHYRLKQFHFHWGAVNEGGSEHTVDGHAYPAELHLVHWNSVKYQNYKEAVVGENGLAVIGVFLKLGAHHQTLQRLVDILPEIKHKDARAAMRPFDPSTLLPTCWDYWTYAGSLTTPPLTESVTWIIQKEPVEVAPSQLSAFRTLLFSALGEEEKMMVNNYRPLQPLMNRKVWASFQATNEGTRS

Carbonic anhydrase 3, sequence (P07451 whole entry): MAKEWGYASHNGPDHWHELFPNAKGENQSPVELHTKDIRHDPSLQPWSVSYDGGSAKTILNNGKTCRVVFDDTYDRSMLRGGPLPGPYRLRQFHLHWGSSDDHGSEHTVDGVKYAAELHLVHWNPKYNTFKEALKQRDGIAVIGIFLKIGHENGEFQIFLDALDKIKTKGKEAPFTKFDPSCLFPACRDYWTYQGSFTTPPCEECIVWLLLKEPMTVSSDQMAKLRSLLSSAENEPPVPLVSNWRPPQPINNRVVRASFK
Carbonic anhydrase 1, sequence (P00915 whole entry, the tested form may be a part): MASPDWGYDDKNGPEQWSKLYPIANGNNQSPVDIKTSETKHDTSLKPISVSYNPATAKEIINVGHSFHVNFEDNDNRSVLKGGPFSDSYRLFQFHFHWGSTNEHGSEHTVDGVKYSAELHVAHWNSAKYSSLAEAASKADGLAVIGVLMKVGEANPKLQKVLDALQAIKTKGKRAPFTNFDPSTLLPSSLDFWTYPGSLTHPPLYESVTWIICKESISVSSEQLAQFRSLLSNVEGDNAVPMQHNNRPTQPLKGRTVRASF
Carbonic anhydrase 13, sequence (Q9D6N1 whole entry): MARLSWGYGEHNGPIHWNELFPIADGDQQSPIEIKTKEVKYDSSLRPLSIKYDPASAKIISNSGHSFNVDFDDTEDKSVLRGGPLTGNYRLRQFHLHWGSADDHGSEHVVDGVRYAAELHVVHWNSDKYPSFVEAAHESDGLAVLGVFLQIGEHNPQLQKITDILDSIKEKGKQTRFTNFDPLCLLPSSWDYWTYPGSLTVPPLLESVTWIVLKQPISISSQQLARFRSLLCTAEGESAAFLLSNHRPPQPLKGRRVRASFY
Carbonic anhydrase 5B, mitochondrial, sequence (Q9Y2D0 whole entry): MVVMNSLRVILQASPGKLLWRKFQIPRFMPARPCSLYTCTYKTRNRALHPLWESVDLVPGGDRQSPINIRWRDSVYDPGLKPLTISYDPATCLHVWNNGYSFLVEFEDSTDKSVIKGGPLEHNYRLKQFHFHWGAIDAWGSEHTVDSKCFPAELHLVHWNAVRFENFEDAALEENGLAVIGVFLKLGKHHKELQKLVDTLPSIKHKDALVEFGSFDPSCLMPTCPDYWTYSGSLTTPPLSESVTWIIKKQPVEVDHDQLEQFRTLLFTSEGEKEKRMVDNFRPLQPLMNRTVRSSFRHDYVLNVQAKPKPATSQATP
Carbonic anhydrase 14, sequence (Q9ULX7 whole entry): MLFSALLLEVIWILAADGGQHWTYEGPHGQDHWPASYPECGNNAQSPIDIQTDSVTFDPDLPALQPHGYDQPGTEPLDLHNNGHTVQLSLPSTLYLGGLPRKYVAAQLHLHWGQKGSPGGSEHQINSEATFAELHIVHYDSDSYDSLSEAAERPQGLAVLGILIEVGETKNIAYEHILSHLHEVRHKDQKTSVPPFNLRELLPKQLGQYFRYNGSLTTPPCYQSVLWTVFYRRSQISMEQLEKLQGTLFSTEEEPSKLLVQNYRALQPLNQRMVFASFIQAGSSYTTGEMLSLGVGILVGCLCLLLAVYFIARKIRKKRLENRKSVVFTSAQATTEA
Carbonic anhydrase 7, sequence (P43166 whole entry): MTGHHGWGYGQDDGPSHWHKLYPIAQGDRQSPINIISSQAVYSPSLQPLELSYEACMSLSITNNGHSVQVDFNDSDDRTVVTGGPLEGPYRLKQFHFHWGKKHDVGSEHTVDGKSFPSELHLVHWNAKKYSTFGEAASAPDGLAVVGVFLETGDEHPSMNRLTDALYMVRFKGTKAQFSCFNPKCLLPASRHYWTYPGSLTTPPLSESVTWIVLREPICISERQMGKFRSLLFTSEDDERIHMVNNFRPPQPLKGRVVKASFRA
Carbonic anhydrase 6, sequence (P23280 whole entry): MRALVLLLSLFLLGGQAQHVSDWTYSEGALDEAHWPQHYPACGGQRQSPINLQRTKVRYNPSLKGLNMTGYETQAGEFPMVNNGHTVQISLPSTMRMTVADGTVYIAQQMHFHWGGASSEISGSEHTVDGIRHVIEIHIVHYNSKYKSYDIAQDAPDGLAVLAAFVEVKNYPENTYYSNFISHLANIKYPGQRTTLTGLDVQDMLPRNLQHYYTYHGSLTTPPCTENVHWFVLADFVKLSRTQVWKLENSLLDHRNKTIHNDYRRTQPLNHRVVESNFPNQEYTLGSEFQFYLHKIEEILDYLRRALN
Carbonic anhydrase 4, sequence (P22748 whole entry): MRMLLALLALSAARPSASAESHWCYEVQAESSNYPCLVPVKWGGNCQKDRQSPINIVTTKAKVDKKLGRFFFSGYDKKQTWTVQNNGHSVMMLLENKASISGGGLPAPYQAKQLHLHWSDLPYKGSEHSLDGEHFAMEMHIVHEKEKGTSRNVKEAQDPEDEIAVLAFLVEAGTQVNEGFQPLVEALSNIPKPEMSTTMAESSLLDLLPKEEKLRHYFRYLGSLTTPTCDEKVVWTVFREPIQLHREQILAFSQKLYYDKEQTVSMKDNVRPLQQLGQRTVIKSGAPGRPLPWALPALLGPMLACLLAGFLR
Carbonic anhydrase 12, sequence (O43570 whole entry, the tested form may be a part): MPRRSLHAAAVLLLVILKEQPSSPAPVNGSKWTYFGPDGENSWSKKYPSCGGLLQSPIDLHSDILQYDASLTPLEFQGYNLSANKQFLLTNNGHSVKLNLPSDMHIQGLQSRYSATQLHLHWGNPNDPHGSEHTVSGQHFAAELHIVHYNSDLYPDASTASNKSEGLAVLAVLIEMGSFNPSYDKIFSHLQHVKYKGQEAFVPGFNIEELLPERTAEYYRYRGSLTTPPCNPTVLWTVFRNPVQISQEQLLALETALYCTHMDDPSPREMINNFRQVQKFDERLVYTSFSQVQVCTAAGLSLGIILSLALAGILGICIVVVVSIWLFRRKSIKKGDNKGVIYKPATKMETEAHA

With `COc1cc(/C=C/C(=O)OCCc2cccc(O)c2)ccc1O`, the inhibitory constant (Ki) at Carbonic anhydrase 3 is > 50 µM; at Carbonic anhydrase 2 it was > 50 µM; at Carbonic anhydrase 9, 0.99 µM; on Carbonic anhydrase 13 it was 0.91 µM; on Carbonic anhydrase 1, > 50 µM.

In the case of `O=C(/C=C/c1ccc(O)cc1)OCCc1ccc(O)cc1`, the inhibition constant Ki was > 50 µM on Carbonic anhydrase 3; > 50 µM at Carbonic anhydrase 2; 0.71 µM on Carbonic anhydrase 9; 13.9 µM at Carbonic anhydrase 13; 3.87 µM on Carbonic anhydrase 1.

Take `O=C(/C=C/c1ccc(O)c(O)c1)OCCc1cccc(OCCc2cccc(O)c2)c1`: the Ki at Carbonic anhydrase 3 was > 50 µM; at Carbonic anhydrase 2 it was > 50 µM; on Carbonic anhydrase 9 it was 0.97 µM; at Carbonic anhydrase 13, 0.9 µM; at Carbonic anhydrase 1, 9.62 µM.

Take `O=C(/C=C/c1ccc(O)cc1)OCCc1cccc(O)c1`: the inhibition constant (Ki) was > 50 µM at Carbonic anhydrase 3; > 50 µM at Carbonic anhydrase 2; 0.82 µM at Carbonic anhydrase 9; 11.6 µM at Carbonic anhydrase 13; 3.66 µM at Carbonic anhydrase 1.

For the compound `O=C(/C=C/c1ccc(O)c(O)c1)OCCc1ccc(OCCc2ccc(O)cc2)cc1`, the inhibition constant Ki on Carbonic anhydrase 3 is > 50 µM; on Carbonic anhydrase 2, > 50 µM; at Carbonic anhydrase 9, 0.93 µM; at Carbonic anhydrase 13 it was 0.84 µM; at Carbonic anhydrase 1, 5.23 µM.

`COc1cc(/C=C/C(=O)OCCc2ccc(O)cc2)ccc1O`: the inhibition constant (Ki) is > 50 µM at Carbonic anhydrase 3; > 50 µM on Carbonic anhydrase 2; 0.81 µM on Carbonic anhydrase 9; 0.93 µM at Carbonic anhydrase 13; > 50 µM at Carbonic anhydrase 1.

Consider `O=C(/C=C/c1ccc(O)cc1)OCc1ccccc1`, for which the Ki on Carbonic anhydrase 12 was 29.4 µM; in experiment [1] it was 0.8 µM; at Carbonic anhydrase 6 it was 0.73 µM; on Carbonic anhydrase 3, > 50 µM; on Carbonic anhydrase 7, 0.72 µM; at Carbonic anhydrase 2, > 50 µM. For the same compound, the Ki at Carbonic anhydrase 14 was 0.81 µM; on Carbonic anhydrase 9 it was 0.86 µM; on Carbonic anhydrase 4, 18.7 µM; at Carbonic anhydrase 13, 8.92 µM; at Carbonic anhydrase 1, > 50 µM; in experiment [2], 0.97 µM.

For the compound `COc1cc(/C=C/C(=O)OCc2ccccc2)ccc1O` [BENZYL FERULATE], the Ki on Carbonic anhydrase 3 was > 50 µM; on Carbonic anhydrase 2, > 50 µM; on Carbonic anhydrase 9, 1.03 µM; at Carbonic anhydrase 13, 0.94 µM; on Carbonic anhydrase 1, > 50 µM.

Broadly, the Ki is the dissociation constant of the complex between target and ligand, obtained from inhibition or displacement.
